Laboratory results as given in the NIST ThermoML archive (doi:10.1021/je4009415).

Experiment: xn = mol fraction of the nth substance listed
Details: Liquid, Vibrating tube method

CCC(=O)OC [methyl propanoate] + CCCCCCCCC
Details	mass density [kg/m3]
288.15 K, x1 = 0.0638	727.45
288.15 K, x1 = 0.0962	730.67
288.15 K, x1 = 0.1483	736.11
288.15 K, x1 = 0.2104	743.23
288.15 K, x1 = 0.2364	746.3
288.15 K, x1 = 0.2979	754.2
288.15 K, x1 = 0.3526	761.75
288.15 K, x1 = 0.4001	768.71
288.15 K, x1 = 0.4322	773.78
288.15 K, x1 = 0.4985	784.9
288.15 K, x1 = 0.5504	794.42
288.15 K, x1 = 0.5954	803.25
288.15 K, x1 = 0.6449	813.66
288.15 K, x1 = 0.693	824.65
288.15 K, x1 = 0.7454	837.57
288.15 K, x1 = 0.7911	849.84
288.15 K, x1 = 0.8391	863.79
288.15 K, x1 = 0.8911	880.25
288.15 K, x1 = 0.9477	900.31
288.15 K, x1 = 1	921.21
298.15 K, x1 = 0.0519	718.48
298.15 K, x1 = 0.1041	723.58
298.15 K, x1 = 0.1448	727.66
298.15 K, x1 = 0.1889	732.52
298.15 K, x1 = 0.2498	739.65
298.15 K, x1 = 0.2949	745.26
298.15 K, x1 = 0.3489	752.48
298.15 K, x1 = 0.409	761.11
298.15 K, x1 = 0.4474	767.1
298.15 K, x1 = 0.5033	776.37
298.15 K, x1 = 0.6015	794.61
298.15 K, x1 = 0.6609	807.17
298.15 K, x1 = 0.7048	817.21
298.15 K, x1 = 0.751	828.64
298.15 K, x1 = 0.7937	839.79
298.15 K, x1 = 0.8444	854.36
298.15 K, x1 = 0.9002	871.96
298.15 K, x1 = 0.9516	890.02
298.15 K, x1 = 1	909.1
308.15 K, x1 = 0.0618	711.31
308.15 K, x1 = 0.1007	715.02
308.15 K, x1 = 0.165	721.49
308.15 K, x1 = 0.1941	724.61
308.15 K, x1 = 0.2601	732.22
308.15 K, x1 = 0.2902	735.94
308.15 K, x1 = 0.3585	744.82
308.15 K, x1 = 0.4102	752.25
308.15 K, x1 = 0.4567	759.29
308.15 K, x1 = 0.4962	765.69
308.15 K, x1 = 0.5559	776.15
308.15 K, x1 = 0.5986	784.17
308.15 K, x1 = 0.6514	794.91
308.15 K, x1 = 0.699	805.43
308.15 K, x1 = 0.7476	817.03
308.15 K, x1 = 0.796	829.48
308.15 K, x1 = 0.8477	844.14
308.15 K, x1 = 0.8947	858.8
308.15 K, x1 = 0.9504	877.94
308.15 K, x1 = 1	896.91
318.15 K, x1 = 0.0587	703.05
318.15 K, x1 = 0.1139	708.17
318.15 K, x1 = 0.141	710.78
318.15 K, x1 = 0.2148	718.51
318.15 K, x1 = 0.2624	723.9
318.15 K, x1 = 0.3145	730.23
318.15 K, x1 = 0.3621	736.39
318.15 K, x1 = 0.394	740.75
318.15 K, x1 = 0.4491	748.79
318.15 K, x1 = 0.4889	755.06
318.15 K, x1 = 0.5458	764.61
318.15 K, x1 = 0.6011	774.72
318.15 K, x1 = 0.6538	785.15
318.15 K, x1 = 0.6972	794.52
318.15 K, x1 = 0.7464	805.96
318.15 K, x1 = 0.7904	816.99
318.15 K, x1 = 0.8414	831.04
318.15 K, x1 = 0.8899	845.62
318.15 K, x1 = 0.9498	865.72
318.15 K, x1 = 1	884.71
328.15 K, x1 = 0.0562	694.8
328.15 K, x1 = 0.0989	698.61
328.15 K, x1 = 0.1503	703.45
328.15 K, x1 = 0.1813	706.43
328.15 K, x1 = 0.194	707.71
328.15 K, x1 = 0.2651	715.48
328.15 K, x1 = 0.3128	721.06
328.15 K, x1 = 0.3582	726.72
328.15 K, x1 = 0.4509	739.58
328.15 K, x1 = 0.5045	747.9
328.15 K, x1 = 0.5545	756.22
328.15 K, x1 = 0.6005	764.42
328.15 K, x1 = 0.6523	774.55
328.15 K, x1 = 0.7484	795.44
328.15 K, x1 = 0.7963	807.38
328.15 K, x1 = 0.8469	821.01
328.15 K, x1 = 0.9004	836.96
328.15 K, x1 = 0.9501	853.63
328.15 K, x1 = 1	872.22
